Results reported in patent publication US20050282743A1, “Molecular interactions in cells” (Arbor Vita Corporation, priority 2001, published 2005).
Several values for one entry are separate records, joined by “and”; a condition that tells them apart may be missing. Identical values can stand only once. Like-named read-outs stand apart in the source and are kept apart here. Peptide text beside a SMILES is read from it. * marks the point of attachment. Biotin = O=C1N[C@H]2[C@H](CS[C@H]2CCCCC(=O)*)N1

Experiments:
[1] = molecular target: T1, PDZ-domain polypeptide (GST/PDZ fusion protein) (Homo sapiens, UniProt Q96JH8); experiment: Apparent affinity (Kd) by titration of PL peptide in the G assay; assay type: binding; settings: PDZ FLJ 10324, PDZ Domain 1
T1 construct: made in house; host or cells: E. coli (DH5alpha, BL21 or JM109)
T1 sequence (Q96JH8 1-1075): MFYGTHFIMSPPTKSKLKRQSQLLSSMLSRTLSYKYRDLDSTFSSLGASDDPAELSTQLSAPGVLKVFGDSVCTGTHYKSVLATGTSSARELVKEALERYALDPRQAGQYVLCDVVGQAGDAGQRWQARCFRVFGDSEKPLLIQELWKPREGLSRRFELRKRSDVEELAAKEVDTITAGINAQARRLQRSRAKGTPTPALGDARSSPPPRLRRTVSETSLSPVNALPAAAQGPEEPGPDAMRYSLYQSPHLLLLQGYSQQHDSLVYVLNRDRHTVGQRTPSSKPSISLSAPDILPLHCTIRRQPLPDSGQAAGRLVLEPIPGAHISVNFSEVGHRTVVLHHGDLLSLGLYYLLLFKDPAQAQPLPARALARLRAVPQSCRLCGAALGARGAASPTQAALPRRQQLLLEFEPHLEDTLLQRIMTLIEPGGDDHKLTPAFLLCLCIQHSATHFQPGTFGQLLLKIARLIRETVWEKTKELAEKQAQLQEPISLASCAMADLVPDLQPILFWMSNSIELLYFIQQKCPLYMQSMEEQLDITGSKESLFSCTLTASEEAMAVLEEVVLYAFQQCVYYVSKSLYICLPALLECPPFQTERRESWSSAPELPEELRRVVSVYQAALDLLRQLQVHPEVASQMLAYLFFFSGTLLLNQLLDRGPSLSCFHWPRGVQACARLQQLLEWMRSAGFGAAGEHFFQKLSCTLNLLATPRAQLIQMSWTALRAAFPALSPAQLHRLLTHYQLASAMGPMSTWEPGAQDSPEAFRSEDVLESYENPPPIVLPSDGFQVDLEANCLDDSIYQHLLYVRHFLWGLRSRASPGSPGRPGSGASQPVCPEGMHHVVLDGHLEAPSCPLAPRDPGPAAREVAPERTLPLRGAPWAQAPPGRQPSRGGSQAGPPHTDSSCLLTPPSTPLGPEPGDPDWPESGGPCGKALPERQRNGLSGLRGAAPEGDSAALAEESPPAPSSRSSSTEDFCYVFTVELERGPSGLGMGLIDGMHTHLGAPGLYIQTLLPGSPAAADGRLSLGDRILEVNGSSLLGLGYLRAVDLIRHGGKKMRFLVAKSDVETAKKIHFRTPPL
Summary of the method: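 A fixed concentration of GST/PDZ fusion protein, 5 ug/ml by default, was mixed in solution with increasing labeled PL peptide (e.g. 0.1 uM-1 mM). Reaction times ranged from 10 minutes to 2 days at 4-37° C. Complexes were separated from free peptide and detected via the label as in the G assay, apparent affinity coming from the saturating concentration.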

[2] = molecular target: T2, DLG1(1-2) (Homo sapiens, UniProt Q12959); experiment: G assay peptide titration, dissociation constants (Example 3, TABLE 4); assay type: binding; settings: biotinylated C-terminal 20-mer, 450 nm, 30 min
T2 construct: made in house; host or cells: E. coli (DH5alpha, BL21 or JM109)
T2 sequence (Q12959 213-413 limits assumed): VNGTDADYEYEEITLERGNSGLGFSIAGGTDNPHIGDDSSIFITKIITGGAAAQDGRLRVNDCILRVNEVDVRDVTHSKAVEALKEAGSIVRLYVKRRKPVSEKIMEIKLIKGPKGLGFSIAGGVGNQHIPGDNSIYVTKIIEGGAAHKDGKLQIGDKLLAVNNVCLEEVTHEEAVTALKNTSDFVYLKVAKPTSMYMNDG
Method: Binding between these molecules was assessed using a modified ELISA. Briefly, a GST-TIP-1 fusion was produced that contained the entire PDZ domain of human TIP-1 (Insert as in EXAMPLE 2). In addition, biotinylated peptides corresponding to the C-terminal 20 amino acids of Tax and CD95 were synthesized and purified by HPLC. Binding between these entities was detected through a colorimetric assay using avidin-HRP to bind the biotin and a peroxidase substrate (G-assay, as described supra). By titrating the amount of peptide and protein added to these reactions, dissociation constants (Kd) were determined as an indication of relative affinity of the peptide and fusion protein association.
(at last wash leave PBS in wells until immediately adding next step) • 6) Add proteins at 50 ul per well on ice (1 to 2 hrs at 4° C.) • 7) Prepare Peptides in 2% BSA (2 ml/row or /columns) • 8) 3× wash with cold PBS • 9) Add peptides at 50 ul per well on ice (time on/time off)
Using the protocol for the ‘G’ assay described above, dissociation constants were determined by titrating the amount of peptide against a set concentration of PDZ-containing protein. Kd values were determined by identifying the peptide concentration that gave half-maximal binding to the PDZ protein. Different concentrations of PDZ-containing protein were plated in order to achieve maximal peptide binding values that were less than the absorbance maximum of the ELISA plate reader.
Proteins on the left are GST fusions to the PDZ domain(s) of protein indicated. Numbers in parenthesis indicate the number of PDZ domains present in the fusion construct, from the amino-terminus of the first number listed to the carboxyl terminus of the second. PDZ Ligands are listed across the top of the table, representing biotinylated peptides corresponding to the carboxy-terminal 20 amino acids of each protein. The first three columns following the PDZ indicate the concentration of fusion protein plated for the G assay, followed by the wavelength and time of reading from addition of TMB substrate. 450 nm indicates a reaction halted by addition of sulfuric acid and absorbance read at 450 nm. Values beneath each ligand indicate first the maximum absorbance followed by the observed Kd in uM. Numbers in the squares are the average of duplicate or quadruplicate reactions. Blank squares indicate that the Kd for the interaction was not tested under those conditions on the same sample plate. No binding to GST alone is observed.

[3] = titration of the PL peptide, read-out: Peptide Optimal Conc (Kd, dissociation constant)

**Q.** How did the Kd [1, 3] turn out when `CC[C@H](C)[C@H](NC(=O)[C@H](Cc1ccc(O)cc1)NC(=O)[C@H](CC(C)C)NC(=O)[C@H](CCC(N)=O)NC(=O)[C@H](Cc1c[nH]cn1)NC(=O)[C@H](CO)NC(=O)[C@H](C)NC(=O)[C@H](CC(C)C)NC(=O)[C@@H](NC(=O)[C@H](CC(=O)O)NC(=O)[C@H](CCSC)NC(=O)[C@H](Cc1ccccc1)NC(=O)[C@@H]1CCCN1C(=O)[C@H](CCCNC(=N)N)NC(=O)[C@@H](NC(=O)[C@H](CC(C)C)NC(=O)[C@H](CC(N)=O)NC(=O)[C@H](CC(=O)O)NC(=O)[C@@H](NC(=O)[C@H](CO)NC(=O)CCCC[C@@H]1SC[C@@H]2NC(=O)N[C@@H]21)[C@@H](C)O)C(C)C)[C@@H](C)O)C(=O)O` [presenilin-2] (Biotin-STDNLVRPFMDTLASHQLYI-OH; C-terminus assumed) was run?
**A.** 1000 nM

**Q.** `CC(C)C[C@H](NC(=O)[C@H](Cc1c[nH]c2ccccc12)NC(=O)[C@H](Cc1c[nH]cn1)NC(=O)[C@H](CCCNC(=N)N)NC(=O)[C@H](CC(C)C)NC(=O)[C@@H](NC(=O)[C@H](Cc1ccccc1)NC(=O)[C@H](CCC(N)=O)NC(=O)[C@H](CCCNC(=N)N)NC(=O)[C@@H](NC(=O)[C@H](CCC(=O)O)NC(=O)CNC(=O)[C@H](CCCNC(=N)N)NC(=O)[C@H](CC(=O)O)NC(=O)[C@@H](NC(=O)[C@H](CC(C)C)NC(=O)[C@H](CCC(=O)O)NC(=O)[C@H](CCCNC(=N)N)NC(=O)CCCC[C@@H]1SC[C@@H]2NC(=O)N[C@@H]21)C(C)C)C(C)C)[C@@H](C)O)C(=O)N[C@@H](CCCCN)C(=O)N[C@H](C(=O)O)C(C)C` [Dopamine transporter (Na+-dependent)] (Biotin-RELVDRGEVRQFTLRHWLKV-OH; C-terminus assumed) was tested. Which Kd ([1]; read-out: Peptide Optimal Conc (Kd by titration of the PL peptide)) did it give?
**A.** 300 nM

**Q.** With `CC[C@H](C)[C@H](NC(=O)[C@H](Cc1ccc(O)cc1)NC(=O)[C@@H](NC(=O)[C@@H]1CCCN1C(=O)[C@H](CCC(N)=O)NC(=O)[C@H](CCC(=O)O)NC(=O)[C@H](CCC(N)=O)NC(=O)[C@H](C)NC(=O)[C@@H](NC(=O)[C@H](CC(C)C)NC(=O)[C@H](CC(C)C)NC(=O)[C@H](CCCNC(=N)N)NC(=O)[C@H](Cc1ccc(O)cc1)NC(=O)[C@H](CCSC)NC(=O)[C@H](C)NC(=O)[C@H](C)NC(=O)[C@@H]1CCCN1C(=O)[C@H](CCSC)NC(=O)[C@@H](NC(=O)[C@H](CCCCN)NC(=O)CCCC[C@@H]1SC[C@@H]2NC(=O)N[C@@H]21)[C@@H](C)O)[C@@H](C)O)C(C)C)C(=O)O` [MINT-1] (Biotin-KTMPAAMYRLLTAQEQPVYI-OH; C-terminus assumed) as the molecule, how does the Kd [1, 3] read?
**A.** 1000 nM

**Q.** Which Kd ([1]; Peptide Optimal Conc (Kd by titration of the PL peptide)) does the source give for `CC[C@H](C)[C@H](NC(=O)[C@H](C)NC(=O)[C@H](CC(C)C)NC(=O)[C@H](Cc1c[nH]c2ccccc12)NC(=O)[C@H](Cc1c[nH]cn1)NC(=O)[C@H](CCC(N)=O)NC(=O)[C@H](CC(C)C)NC(=O)[C@H](CCC(N)=O)NC(=O)[C@H](Cc1ccccc1)NC(=O)[C@H](CCC(N)=O)NC(=O)[C@H](CCCNC(=N)N)NC(=O)[C@@H](NC(=O)[C@H](CC(=O)O)NC(=O)[C@H](CCCNC(=N)N)NC(=O)[C@H](CCC(N)=O)NC(=O)[C@H](C)NC(=O)[C@@H](NC(=O)[C@H](CC(C)C)NC(=O)[C@H](Cc1c[nH]cn1)NC(=O)[C@H](Cc1c[nH]cn1)NC(=O)CCCC[C@@H]1SC[C@@H]2NC(=O)N[C@@H]21)C(C)C)[C@@H](C)CC)C(=O)O` [noradrenaline transporter] (Biotin-HHLVAQRDIRQFQLQHWLAI-OH; C-terminus assumed) here?
**A.** 600 nM

**Q.** With `CC[C@H](C)[C@H](NC(=O)[C@H](CCCCN)NC(=O)[C@@H](NC(=O)[C@H](CO)NC(=O)[C@@H]1CCCN1C(=O)[C@H](Cc1ccccc1)NC(=O)[C@@H](NC(=O)[C@@H](NC(=O)[C@H](CCCNC(=N)N)NC(=O)[C@H](CCC(=O)O)NC(=O)[C@H](CC(C)C)NC(=O)[C@H](CC(C)C)NC(=O)[C@H](CC(C)C)NC(=O)[C@@H](NC(=O)CNC(=O)[C@@H](NC(=O)CCCC[C@@H]1SC[C@@H]2NC(=O)N[C@@H]21)C(C)C)[C@@H](C)O)C(C)C)[C@@H](C)CC)C(C)C)C(=O)N[C@@H](C)C(=O)N[C@H](C(=O)N[C@@H](CC(C)C)C(=O)N[C@H](C(=O)O)C(C)C)[C@@H](C)O` [Adenovirus E4 Type9] as the molecule, how does the Kd ([1]; Protein Optimal Conc 5, read-out: Peptide Optimal Conc (Kd by titration of the PL peptide)) read?
**A.** 100 nM

**Q.** For `CC[C@H](C)[C@H](NC(=O)[C@H](CCC(N)=O)NC(=O)CCCC[C@@H]1SC[C@@H]2NC(=O)N[C@@H]21)C(=O)N[C@@H](CO)C(=O)N1CCC[C@H]1C(=O)NCC(=O)NCC(=O)N[C@@H](CC(C)C)C(=O)N[C@@H](CCC(=O)O)C(=O)N1CCC[C@H]1C(=O)N1CCC[C@H]1C(=O)N[C@@H](CO)C(=O)N[C@@H](CCC(=O)O)C(=O)N[C@@H](CCCCN)C(=O)N[C@@H](Cc1c[nH]cn1)C(=O)N[C@@H](Cc1ccccc1)C(=O)N[C@@H](CCCNC(=N)N)C(=O)N[C@@H](CCC(=O)O)C(=O)N[C@H](C(=O)N[C@@H](CCC(=O)O)C(=O)N[C@H](C(=O)O)C(C)C)[C@@H](C)O` [Tax], which Kd ([2]; Kd, DLG1(1-2) plated at 0.1 ug/ml) is on record?
**A.** 130 nM and 200 nM

**Q.** How did the “OD (maximum absorbance)” value ([2]; DLG1(1-2) plated at 0.3 ug/ml) turn out when `CC[C@H](C)[C@H](NC(=O)[C@H](CCC(=O)O)NC(=O)[C@H](CC(N)=O)NC(=O)[C@H](CCCNC(=N)N)NC(=O)[C@H](Cc1ccccc1)NC(=O)[C@H](CC(N)=O)NC(=O)[C@H](CO)NC(=O)[C@H](CC(N)=O)NC(=O)[C@H](CCC(=O)O)NC(=O)[C@H](CO)NC(=O)[C@H](CC(=O)O)NC(=O)[C@H](CO)NC(=O)[C@@H](NC(=O)[C@@H](NC(=O)[C@H](CC(=O)O)NC(=O)[C@H](CCCCN)NC(=O)CCCC[C@@H]1SC[C@@H]2NC(=O)N[C@@H]21)[C@@H](C)CC)[C@@H](C)O)C(=O)N[C@@H](CCC(N)=O)C(=O)N[C@@H](CO)C(=O)N[C@@H](CC(C)C)C(=O)N[C@H](C(=O)O)C(C)C` [CD95] (Biotin-KDITSDSENSNFRNEIQSLV-OH; C-terminus assumed) was run?
**A.** 2.6 and 2.1

**Q.** What about the Kd ([2]; DLG1(1-2) plated at 0.3 ug/ml, read-out: Kd) of the same molecule?
**A.** 15000 nM and 20000 nM
